This note sets out measurements from article PMC12673918, “Design, Synthesis, and Selective Antiproliferative Activity of Indolizine Derivatives as Microtubule Destabilizers” (Archiv Der Pharmazie, 2025).

Assay type in all cases: cell-based
The target of one test is T1, human P2X4 receptor (Homo sapiens, UniProt Q99571).
T1 construct: expressed in transfected cells; host or cells: human 1321N1 astrocytoma cells
T1 sequence (Q99571 1-388): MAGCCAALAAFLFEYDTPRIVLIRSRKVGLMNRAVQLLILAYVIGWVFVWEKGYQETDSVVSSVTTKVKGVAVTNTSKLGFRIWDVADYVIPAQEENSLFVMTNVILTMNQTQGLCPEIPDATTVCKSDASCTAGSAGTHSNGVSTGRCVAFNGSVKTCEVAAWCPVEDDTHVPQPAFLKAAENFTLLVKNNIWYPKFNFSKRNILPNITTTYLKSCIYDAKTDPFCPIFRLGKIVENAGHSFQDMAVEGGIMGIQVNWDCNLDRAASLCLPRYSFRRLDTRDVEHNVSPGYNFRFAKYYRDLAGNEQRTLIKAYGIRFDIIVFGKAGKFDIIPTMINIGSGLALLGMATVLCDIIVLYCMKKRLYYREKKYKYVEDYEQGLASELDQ
Put plainly: Ca2+‐flux assay for the hP2X4 receptor. The following applies: read-out: % Inhibition of P2X4R at 10 µM compounds’ concentration. In outline:
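Antagonists (10^–5–10^–9 M) added for 30 min at room temperature to Calbryte520AM-loaded 1321N1 cells stably expressing hP2X4. Stimulus was ATP at its EC50; Ca2+ signal (494/516 nm) recorded 200 s, with concentration-dependent RFU decrease plotted.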

The subject of test [1] is HGC‐27 (gastric carcinoma). The test is described as follows: Resazurin cell viability assay, HGC‐27. The following applies: for inhibition at 50 µM / IC50: Homo sapiens, HGC-27; for inhibition at 50 µM: read-out: % Cellular growth inhibition (at 50 µM) HGC‐27; for decrease in IC50 relative to 7f (HIT): HGC‐27. In outline: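 Cells in DMEM/10% FBS, 1 × 10^3 per well, adhered overnight, then treated with compounds (0–50 µM) for 72 h. Viability read as fluorescence (ex 530, em 590 nm) after 4 h with 44 µM resazurin. % growth inhibition at 50 µM and IC50 by nonlinear regression, triplicates.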

For a further test, the system named is GNP15. The test is described as follows: Resazurin cellular growth inhibition, GNP15. Particulars: 72 hours, triplicate; read-out: IC50 (nM, Cellular growth inhibition) GNP15 (supplement). The protocol:
^b IC50 values were determined using the same resazurin-based assay, with fluorescence measurements performed after 72 hours of treatment. These experiments were carried out in triplicate.
(In general: Alamar Blue is a resazurin reagent that responds to reducing activity.)

Test [2] relates to OHMF (non‐tumoral oral fibroblast). Put plainly: Resazurin cell viability assay, OHMF fibroblasts. Particulars: Homo sapiens, 72 h, n = 3. Here is the method: (§1) The tongue squamous cell carcinoma cell line CAL‐27 (ATCC CRL‐2095), breast carcinoma BT‐20 (ATCC HTB‐19), gastric carcinoma HGC‐27 (BCRJ Code 0310), and normal oral fibroblast OHMF (culture of fibroblasts derived from human oral healthy mucosa, approved by the Research Ethics Committee of the University of São Paulo, Campus of Ribeirão Preto, Brazil (with protocol number 049) were cultured in DMEM medium (DMEM, Sigma‐Aldrich, St. Louis, MO, USA) supplemented with 10% fetal bovine serum and a solution of penicillin (100 U/mL) and streptomycin (100 μg/mL). The cultures were maintained in a humidified incubator with 5% CO₂ at 37°C.
(§2) Cell viability was analyzed using the resazurin assay. For this, cells were seeded in 96‐well plates (1 × 10^3 cells per well) and incubated at 37°C with 5% CO₂ overnight for cell adhesion. Subsequently, the cells were treated with different compounds (0–50 µM) for 72 h. After treatment, the medium was replaced with phenol‐free DMEM medium (Sigma‐Aldrich) containing resazurin at a concentration of 44 µM (Sigma‐Aldrich). After incubation for 4 h at 37°C, fluorescence detection was performed (excitation 530/25 nm, emission 590/35 nm) using a microplate fluorimeter (Synergy 2, Biotek). Initial cell growth inhibition assays were performed in triplicate or quadruplicate, while IC50 determinations were conducted in triplicate. Data were plotted, and IC₅₀ values were determined by nonlinear regression using GraphPad Prism software 9.0.

Test [3] deals with CAL‐27, BT‐20 and HGC‐27 cancer cell lines. The test is described as follows: Resazurin antiproliferative screening, cancer cell line panel. The following applies: for level of inhibition in the 50 µM screening: 70% inhibition threshold; for IC50: range over CAL‐27, BT‐20, HGC‐27, read-out: IC50 values across cancer cell lines. Here is the method: as §1, §2
Where [4] appears, read: 72 h, mean ± SD, n = 3, read-out: IC50 (nM) HGC‐27.
Where [5] appears, read: 72 hours, triplicate, read-out: IC50 (nM, Cellular growth inhibition) HGC-27 (supplement).

By IC50 is commonly meant the midpoint of a concentration-inhibition curve.

Read-outs that look alike come from different tables or passages of the source.

Regarding `COc1ccc2c(C(=O)c3ccc(Cl)c(Cl)c3)ccn2c1` [Compound 7e, (6‐methoxyindolizin‐1‐yl)(3,4‐dichlorophenyl)methanone], on human P2X4 receptor, the inhibition at 10 µM was -3%. In addition, the inhibition at 50 µM in test [1] (72 h, mean ± SD, n = 3) is 68 ± 3.4%. Moreover, the IC50 is 11900 nM in test [1] (setting [4]), 14100 nM in test [1] (setting [5]), more than 50000 nM with GNP15 and more than 50000 nM in test [2].
`COc1ccc2c(C(=O)c3cc(OC)c(OC)c(OC)c3)c(C)cn2c1` [Compound 8a, (6‐methoxy‐2‐methylindolizin‐1‐yl)(3,4,5‐trimethoxyphenyl)methanone]: the inhibition at 10 µM at human P2X4 receptor is 5%. In addition, the inhibition at 50 µM in test [1] (72 h, mean ± SD, n = 3) was 41 ± 4.3%. Besides, the IC50 is 410 ± 212 nM in test [1] (setting [4]), 370 ± 28 nM in test [1] (setting [5]), more than 50000 nM with GNP15 and more than 50000 nM in test [2].
Turning to `COc1ccc2c(C(=O)c3cc(OC)c(OC)c(OC)c3)c(C(C)(C)C)cn2c1` [Compound 8b, [2‐(Tert‐Butyl)‐6‐Methoxyindolizin‐1‐yl](3,4,5‐Trimethoxyphenyl)Methanone], the inhibition at 10 µM at human P2X4 receptor is -6%. Besides, the inhibition at 50 µM in test [1] (72 h, mean ± SD, n = 3) was determined as 46 ± 6%. In addition, the “level of inhibition in the 50 µM screening” value (shortened to “level of inhibition”) in test [3] is 89.5% to 73.1.
Regarding `COc1ccc2c(C(=O)c3cc(OC)c(OC)c(OC)c3)c(C(F)(F)F)cn2c1` [Compound 8e, [6‐methoxy‐2‐(trifluoromethyl)indolizin‐1‐yl](3,4,5‐trimethoxyphenyl)methanone], on human P2X4 receptor, the inhibition at 10 µM is -9%. In addition, in test [1], the “decrease in IC50 relative to 7f (HIT)” value is “four‐ to sixfold decrease”. The inhibition at 50 µM in test [1] (72 h, mean ± SD, n = 3) is 53 ± 2.2%. In addition, the half-maximal inhibitory concentration (IC50) was 117 ± 32 nM in test [1] (setting [4]); 105 ± 49 nM in test [1] (setting [5]); 47 to 117 nM in test [3]; more than 50000 nM with GNP15; more than 50000 nM in test [2]. For the same molecule, the “level of inhibition” value in test [3] is listed as 89.5% to 73.1.
Take `CCCc1cn2cc(OC)ccc2c1C(=O)c1cc(OC)c(OC)c(OC)c1` [Compound 8h, (6‐methoxy‐2‐propylindolizin‐1‐yl)(3,4,5‐trimethoxyphenyl)methanone]: the inhibition at 10 µM at human P2X4 receptor was 6%. The “decrease in IC50 relative to 7f (HIT)” value in test [1] is on record as “four‐ to sixfold decrease”. In addition, the inhibition at 50 µM in test [1] (72 h, mean ± SD, n = 3) is 70 ± 3.3%. For the same molecule, the IC50 in test [1] (setting [4]) is 75 ± 35 nM; in test [1] (setting [5]), 90 ± 56 nM; in test [3], 47 to 117 nM; in the test with GNP15 it was more than 50000 nM; in test [2], more than 50000 nM. Further, the “level of inhibition” value in test [3] is given as 89.5% to 73.1.
For the molecule `COc1ccc2c(C(=O)c3cc(OC)c(OC)c(OC)c3)c(-c3ccc(C)cc3)cn2c1` [Compound 8j, [6‐methoxy‐2‐(p ‐tolyl)indolizin‐1‐yl](3,4,5‐trimethoxyphenyl)methanone], the inhibition at 10 µM at human P2X4 receptor is 0%. In addition, in test [1] (72 h, mean ± SD, n = 3), the inhibition at 50 µM was determined as 71 ± 2%. Also, the IC50 in test [1] (setting [4]) is 465 ± 35 nM; in the test with GNP15, more than 50000 nM; in test [2], more than 50000 nM. For the same molecule, the “level of inhibition” value in test [3] is reported as 89.5% to 73.1.
For the molecule `COc1ccc(-c2cn3cc(OC)ccc3c2C(=O)c2cc(OC)c(OC)c(OC)c2)cc1` [Compound 8k, [6‐methoxy‐2‐(4‐methoxyphenyl)indolizin‐1‐yl](3,4,5‐trimethoxyphenyl)methanone], at human P2X4 receptor, the inhibition at 10 µM stood at 7%. Further, in test [1] (72 h, mean ± SD, n = 3), the inhibition at 50 µM was 74 ± 2%. In addition, the half-inhibitory concentration (IC50) was 880 ± 14 nM in test [1] (setting [4]), 800 ± 127 nM in test [1] (setting [5]), more than 50000 nM in the test on GNP15 and more than 50000 nM in test [2]. In addition, in test [3], the “level of inhibition” value is 89.5% to 73.1.
